Data reported in patent US5061708A, “Therapeutic guanine esters” (priority 1987, dated 1991).
Structures can show the parent of a compound that is named as a salt.

Assays:
[1] = tested on: Herpes Simplex Virus (HSV 1); assay: HSV 1 plaque reduction assay in monolayers of Vero cells; format: cell-based; conditions: HSV 1, Vero cells, 50% inhibitory concentration
Experimental: Herpes Simplex Virus (HSV 1) was assayed in monolayers of Vero cells in multiwell trays. Activity of compounds was determined in the plaque reduction assay, in which a cell monolayer was infected with a suspension of HSV 1, and then overlaid with nutrient agarose in the form of a gel to ensure that there was no spread of virus throughout the culture. A range of concentrations of compound of known molarity was incorporated in the nutrient agarose overlay. Plaque numbers at each concentration were expressed as percentages of the control and a dose-response curve was drawn. From this curve the 50% inhibitory concentration (IC50) was estimated.

[2] = tested on: herpes viruses; conditions: particularly against herpes viruses, in words; cited from earlier work
[3] = in words; cited from earlier work

| SMILES | IC50 [1] [µM] | antiviral activity [2] | absorption from the gastrointestinal tract after oral administration [3] |
| --- | --- | --- | --- |
| CC[C@H](C)[C@H](N)C(=O)OCCOCn1cnc2c(=O)[nH]c(N)nc21 [Example 1, 2-(2-Amino-1,6-dihydro-6-oxo-9H(purin-9-yl)methoxy)ethyl L-isoleucinate hydrochloride] | 3.8 | – | – |
| Nc1nc2c(ncn2COCCO)c(=O)[nH]1 [Acyclovir, 9-(2-Hydroxyethoxymethyl)guanine] | 0.08 to 0.1 | potent antiviral activity | only poorly absorbed |
